From ChEMBL document CHEMBL1201862, “PubChem BioAssay data set” (2004)
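Step 1: Grow cells in 96-well plates. Step 2: Expose to compound for 48 hours at 5 concentrations. Step 3: Interpolate endpoints linearly; if unreached, use highest concentration. GI50: concentration for 50% inhibition of growth.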 The source made the active and inactive calls. Cut-off read from the data, not from the text of the source: active = GI50 up to about 1.1 µM and inactive = higher.

Tests used:
Assay in all cases: NCI tumour cell line growth inhibition, 48 h
MDA-MB-231 = tested on: MDA-MB-231
COLO 205 = tested on: COLO 205
DU-145 = tested on: DU-145
SNB-19 = tested on: SNB-19
SF-539 = tested on: SF-539
SK-MEL-28 = tested on: SK-MEL-28
RPMI-8226 = tested on: RPMI-8226
K562 = tested on: K562
Hs-578T = tested on: Hs-578T
HCT-116 = tested on: HCT-116
T47D = tested on: T47D
HCT-15 = tested on: HCT-15
NCI-H460 = tested on: NCI-H460
M14 = tested on: M14
NCI/ADR-RES = tested on: NCI/ADR-RES
Malme-3M = tested on: Malme-3M
786-0 = tested on: 786-0
OVCAR-5 = tested on: OVCAR-5
SK-MEL-5 = tested on: SK-MEL-5
NCI-H522 = tested on: NCI-H522

Structure (SMILES) | GI50 (MDA-MB-231) | GI50 (COLO 205) | GI50 (DU-145) | GI50 (SNB-19) | GI50 (SF-539) | GI50 (SK-MEL-28) | GI50 (RPMI-8226) | GI50 (K562) | GI50 (Hs-578T) | GI50 (HCT-116) | GI50 (T47D) | GI50 (HCT-15) | GI50 (NCI-H460) | GI50 (M14) | GI50 (NCI/ADR-RES) | GI50 (Malme-3M) | GI50 (786-0) | GI50 (OVCAR-5) | GI50 (SK-MEL-5) | GI50 (NCI-H522)
O=C1/C(=C\c2c(-c3ccccc3)[nH]n(-c3ccccc3)c2=O)C(c2ccccc2)=NN1c1ccccc1 | > 100 µM (inactive) | > 100 µM (inactive) | > 100 µM (inactive) | > 100 µM (inactive) | > 100 µM (inactive) | > 100 µM (inactive) | > 100 µM (inactive) | 87.5 µM (inactive) | > 100 µM (inactive) | > 100 µM (inactive) | > 100 µM (inactive) | > 100000 nM | > 100 µM (inactive) | > 100 µM (inactive) | > 100 µM (inactive) | > 100 µM (inactive) | > 100 µM (inactive) | > 100 µM (inactive) | – | –
CC1CCC2(OC1)OC1CC3C4CC=C5CC(OC6OC(CO)C(OC7OC(C)C(OC8OC(C)C(O)C(O)C8O)C(O)C7O)C(O)C6OC6OC(C)C(O)C(O)C6O)CCC5(C)C4CCC3(C)C1C2C (stereo not drawn) | 0.0628 µM (active) | 1.28 µM (inactive) | 1.28 µM (inactive) | 0.262 µM (active) | 0.394 µM (active) | 0.612 µM (active) | 0.382 µM (active) | 0.142 µM (active) | 0.264 µM (active) | 0.521 µM (active) | 1.24 µM (inactive) | 1510 nM | 1.61 µM (inactive) | 1.05 µM (active) | – | 0.363 µM (active) | 1.07 µM (active) | 1.12 µM (inactive) | 1.43 µM (inactive) | 643 nM (active)
COP(=O)(OC)C(NC=O)P(=O)(OC)OC | > 100 µM (inactive) | > 100 µM (inactive) | > 100 µM (inactive) | > 100 µM (inactive) | > 100 µM (inactive) | > 100 µM (inactive) | > 100 µM (inactive) | > 100 µM (inactive) | > 100 µM (inactive) | > 100 µM (inactive) | > 100 µM (inactive) | > 100000 nM | > 100 µM (inactive) | > 100 µM (inactive) | > 100 µM (inactive) | > 100 µM (inactive) | > 100 µM (inactive) | – | > 100 µM (inactive) | –
C=C1C(=O)[C@@]23CC[C@@H]4[C@@]5(C)CCC[C@@]4(OC5=O)C2(C)CC[C@]1(OC)C3 (stereo partly drawn) | – | 2.38 µM (inactive) | 4.41 µM (inactive) | 1.83 µM (inactive) | 1.57 µM (inactive) | 1.65 µM (inactive) | 0.205 µM (active) | 0.0993 µM (active) | 1.96 µM (inactive) | 0.423 µM (active) | 1.39 µM (inactive) | 581 nM | 1.93 µM (inactive) | 1.72 µM (inactive) | 1.45 µM (inactive) | – | 0.279 µM (active) | 2.06 µM (inactive) | 1.59 µM (inactive) | 406 nM (active)
